Laboratory results from ChEMBL document CHEMBL1649509, “Lon protease is essential for paradoxical survival of Escherichia coli exposed to high concentrations of quinolone” (Antimicrob Agents Chemother, 2009).
Activity calls are given as the source filed them. The calls are words filed in the database; no cut-off is given here.

Tests used:
Type in all cases: functional, organism-based
Escherichia coli [1] = assay: Antibacterial activity against Escherichia coli K-12 harboring lon lexA3 mutant gene
Escherichia coli [2] = assay: Antibacterial activity against Escherichia coli K-12 harboring gyrA67/gyrB225 mutant gene
Escherichia coli [3] = assay: Antibacterial activity against lon-deficient Escherichia coli KD2372
Escherichia coli [4] = assay: Antibacterial activity against Escherichia coli K-12 harboring lon sulA double mutant gene
Escherichia coli [5] = assay: Antibacterial activity against Escherichia coli K-12 by viscometric assay
Escherichia coli [6] = assay: Antibacterial activity against lon-deficient Escherichia coli KD2372 by viscometric assay

CCn1cc(C(=O)O)c(=O)c2ccc(C)nc21
Activity (Escherichia coli [1]): Active
Activity (Escherichia coli [2]): Active
Activity (Escherichia coli [3]): Active
Activity (Escherichia coli [4]): Active
Activity (Escherichia coli [5]): inactive
Activity (Escherichia coli [6]): Active
